Measured values taken from US12502362B2, “Inhibitors of nucleotidyltransferase superfamily enzymes as antibiotics” (priority 2017, dated 2025).
≈ marks a conversion by molar mass, not a printed value.

Assays:
[1] = system: Coagulase negative Staphylococcus; test: MIC80 on coagulase negative Staphylococcus; type: cell-based
Protocol: (§1) To further characterize the compounds, the minimal inhibitory concentration (MIC80) were determined for selected compounds. MIC80 is defined as the compound concentration at which ≥80% bacterial growth is inhibited compare to untreated controls. Meanwhile, for the selected compounds, cytotoxicity assays (CC50) were performed on a HepG2-derived hepatoblastoma cell line (HEPDES19). […] For the MIC80 measurements, a 1.5 fold dilution series of the compounds was prepared in Mueller-Hinton II broth. […] For CC50 evaluation, soluble tetrazolium dye (MTS) was used to measure mitochondrial toxicity in a human hepatoblastoma cell line (18). The bacteria (E. coli, S. saprophyticus and A. baumannii) used in MIC80 measurements were the same as that in the primary screening, but for Staphylococcus, S. aureus is used primarily because it is a common pathogen in Staphylococcaeae family, while S. saprophyticus is part of the normal human flora. S. aureus (ATCC 29213) is methicillin-sensitive Staphylococcus aureus (MSSA) strain and it was used as a model strain to measure the MIC80.
(§2) It was also tested whether compounds #63 and #285 can inhibit other coagulase-negative Staphylococcus (CNS) including S. epidermidis, S. hominis, etc. […] .

[2] = Cytotoxicity assay (CC50), MTS; type: cell-based, human; conditions: human, HepG2-derived hepatoblastoma cell line (HEPDES19), HEPDES19 cells
Protocol: (§3) To further characterize the compounds, the minimal inhibitory concentration (MIC80) were determined for selected compounds. MIC80 is defined as the compound concentration at which ≥80% bacterial growth is inhibited compare to untreated controls. Meanwhile, for the selected compounds, cytotoxicity assays (CC50) were performed on a HepG2-derived hepatoblastoma cell line (HEPDES19). […] For CC50 evaluation, soluble tetrazolium dye (MTS) was used to measure mitochondrial toxicity in a human hepatoblastoma cell line (18). The bacteria (E. coli, S. saprophyticus and A. baumannii) used in MIC80 measurements were the same as that in the primary screening, but for Staphylococcus, S. aureus is used primarily because it is a common pathogen in Staphylococcaeae family, while S. saprophyticus is part of the normal human flora.

[3] = system: HepG2-derived hepatoblastoma cell line (HEPDES19); test: Cytotoxicity assay (CC50), MTS; type: cell-based, human; conditions: HEPDES19 cells
Protocol: as §3

[4] = system: S. aureus (ATCC 29213); test: MIC80 on S. aureus; type: cell-based, Staphylococcus aureus; conditions: Staphylococcus aureus, ATCC 29213 / MSSA, read-out: MIC80 S. aureus, S. aureus ATCC 29213 (MSSA); ≥80% growth inhibition
Protocol: as §3

[5] = system: Acinetobacter baumannii (Abl, from a patient); test: microbe, parasite or virus in culture; type: cell-based
Protocol: as §3

[6] = system: E. coli (ATCC 35218); test: microbe, parasite or virus in culture; type: cell-based; conditions: for MIC80: Escherichia coli, ATCC35218, read-out: MIC80 E. coli, E. coli ATCC 35218; for MIC80 E. coli: E. coli ATCC 35218
Protocol: as §3

[7] = system: Staphylococcus hominis; test: MIC80 on S. hominis; type: cell-based
Protocol: as §1, §2

[8] = system: S. aureus and/or S. saprophyticus; test: MIC80 on S. aureus and/or S. saprophyticus; type: cell-based; conditions: read-out: MIC80 against S. aureus and/or S. saprophyticus
Protocol: as §1

[9] = system: S. aureus ATCC strains and methicillin-resistant Staphylococcus aureus (MRSA); test: MIC80 on S. aureus ATCC strains and MRSA; type: cell-based
Protocol: as §3

[10] = system: Staphylococcus epidermidis; test: MIC80 on S. epidermidis; type: cell-based
Protocol: as §1, §2

[11] = system: Citrobacter koseri; test: microbe, parasite or virus in culture; type: cell-based
Protocol: as §3
(§4) All these MDR-bacteria are at least resistant to two classes of the antibiotics among five groups and/or specific antibiotics including quinolones/fluorquinolones, carbapenems, cephalosporins, aminoglycosides and piperacillin-tazobactam.

[12] = system: Klebsiella pneumoniae; test: microbe, parasite or virus in culture; type: cell-based
Protocol: as §3, §4

[13] = system: Morganella morganii; test: microbe, parasite or virus in culture; type: cell-based
Protocol: as §3, §4

[14] = system: MDR Enterobacteriaceae; test: organism not typed; type: cell-based
Protocol: as §3, §4

[15] = system: Enterobacter cloacae complex; test: microbe, parasite or virus in culture; type: cell-based
Protocol: as §3, §4

[16] = system: MDR E. coli; test: microbe, parasite or virus in culture; type: cell-based
Protocol: as §3, §4

Q: For `COc1ccccc1C(=O)Oc1cccccc1=O` [Compound 285], which MIC80 ([1]; CNS1 (Coagulase negative Staphylococcus)) is on record?
A: 9.9 µM (≈ 2.54 µg/mL)

Q: What about the MIC80 ([1]; CNS2 (Coagulase negative Staphylococcus)) of the same compound?
A: 6.6 µM (≈ 1.69 µg/mL)

Q: And the CC50 [2]?
A: > 50 µM

Q: What about the CC50 [3] of the same compound?
A: ≥ 100 µM

Q: And the MIC80 [4]?
A: 10.3 µM (≈ 2.64 µg/mL)

Q: And the MIC80 ([5]; Acinetobacter baumannii, read-out: MIC80 A. baumannii, A. baumannii Ab1, MDR patient isolate)?
A: 44.4 µM (≈ 11.4 µg/mL)

Q: And the MIC80 [6]?
A: 100 µM (≈ 25.6 µg/mL)

Q: What about the MIC80 ([7]; Sh1 (Staphylococcus hominis)) of the same compound?
A: 9.9 µM (≈ 2.54 µg/mL)

Q: And the MIC80 ([7]; Sh2 (Staphylococcus hominis))?
A: 9.9 µM (≈ 2.54 µg/mL)

Q: And the MIC80 ([7]; Sh3 (Staphylococcus hominis))?
A: 6.6 µM (≈ 1.69 µg/mL)

Q: What about the MIC80 [8] of the same compound?
A: < 20 µM

Q: What about the MIC80 ([9]; ATCC 25923 / MRSA, S. aureus ATCC 25923) of the same compound?
A: 8.8 µM (≈ 2.26 µg/mL)

Q: And the MIC80 ([9]; ATCC 29213 / MRSA, S. aureus ATCC 29213 (Table 3))?
A: 8.8 µM (≈ 2.26 µg/mL)

Q: What about the MIC80 ([9]; BAA-976 / MRSA, S. aureus ATCC BAA 976) of the same compound?
A: 8.8 µM (≈ 2.26 µg/mL)

Q: And the MIC80 ([9]; BAA-977 / MRSA, S. aureus ATCC BAA 977)?
A: 8.8 µM (≈ 2.26 µg/mL)

Q: And the MIC80 ([9]; MRSA, Sa1 (MRSA))?
A: 8.8 µM (≈ 2.26 µg/mL)

Q: What about the MIC80 ([9]; MRSA, Sa2 (MRSA)) of the same compound?
A: 8.8 µM (≈ 2.26 µg/mL)

Q: What about the MIC80 ([9]; MRSA, Sa3 (MRSA)) of the same compound?
A: 8.8 µM (≈ 2.26 µg/mL)

Q: What about the MIC80 ([9]; MRSA, Sa5 (MRSA)) of the same compound?
A: 8.8 µM (≈ 2.26 µg/mL)

Q: What about the MIC80 ([9]; MRSA, Sa6 (MRSA)) of the same compound?
A: 8.8 µM (≈ 2.26 µg/mL)

Q: And the MIC80 ([9]; MRSA, Sa7 (MRSA))?
A: 8.8 µM (≈ 2.26 µg/mL)

Q: And the MIC80 ([9]; MRSA, Sa8 (MRSA))?
A: 8.8 µM (≈ 2.26 µg/mL)

Q: And the MIC80 ([9]; MRSA, Sa9 (MRSA))?
A: 8.8 µM (≈ 2.26 µg/mL)

Q: What about the MIC80 ([9]; MRSA, Sa10 (MRSA)) of the same compound?
A: 8.8 µM (≈ 2.26 µg/mL)

Q: And the MIC80 ([9]; MRSA, Sa11 (MRSA))?
A: 8.8 µM (≈ 2.26 µg/mL)

Q: What about the MIC80 ([9]; MRSA, Sa12 (MRSA)) of the same compound?
A: 8.8 µM (≈ 2.26 µg/mL)

Q: What about the MIC80 ([9]; MRSA, Sa14 (MRSA)) of the same compound?
A: 8.8 µM (≈ 2.26 µg/mL)

Q: What about the MIC80 ([9]; MRSA, Sa15 (MRSA)) of the same compound?
A: 5.9 µM (≈ 1.51 µg/mL)

Q: What about the MIC80 ([9]; MRSA, Sa16 (MRSA)) of the same compound?
A: 8.8 µM (≈ 2.26 µg/mL)

Q: What about the MIC80 ([9]; MRSA, Sa17 (MRSA)) of the same compound?
A: 8.8 µM (≈ 2.26 µg/mL)

Q: What about the MIC80 ([9]; MRSA, Sa18 (MRSA)) of the same compound?
A: 8.8 µM (≈ 2.26 µg/mL)

Q: What about the MIC80 ([9]; MRSA, Sa19 (MRSA)) of the same compound?
A: 8.8 µM (≈ 2.26 µg/mL)

Q: And the MIC80 ([9]; MRSA, Sa20 (MRSA))?
A: 13.2 µM (≈ 3.38 µg/mL)

Q: What about the MIC80 ([9]; MRSA, Sa21 (MRSA)) of the same compound?
A: 5.9 µM (≈ 1.51 µg/mL)

Q: What about the MIC80 ([9]; MRSA, Sa22 (MRSA)) of the same compound?
A: 5.9 µM (≈ 1.51 µg/mL)

Q: What about the MIC80 ([9]; MRSA, Sa23 (MRSA)) of the same compound?
A: 8.8 µM (≈ 2.26 µg/mL)

Q: What about the MIC80 ([10]; Se1 (Staphylococcus epidermidis)) of the same compound?
A: 8.8 µM (≈ 2.26 µg/mL)

Q: And the MIC80 ([10]; Se2 (Staphylococcus epidermidis))?
A: 6.6 µM (≈ 1.69 µg/mL)

Q: What about the MIC80 ([10]; Se3 (Staphylococcus epidermidis)) of the same compound?
A: 6.6 µM (≈ 1.69 µg/mL)

Q: What about the MIC80 ([10]; Se4 (Staphylococcus epidermidis)) of the same compound?
A: 9.9 µM (≈ 2.54 µg/mL)

Q: What about the MIC80 ([10]; Se5 (Staphylococcus epidermidis)) of the same compound?
A: 9.9 µM (≈ 2.54 µg/mL)

Q: Which CC50 [3] does the source give for `CCn1cc(C(=O)O)c(=O)c2cnc(N3CCN(C(=O)NC)CC3)nc21` [Compound 322] here?
A: ≥ 100 µM

Q: What about the “MIC80 A. baumannii” value ([5]; A. baumannii Ab1, MDR patient isolate) of the same compound?
A: >100 µM

Q: And the “inhibition of E. coli (in words)” value [6]?
A: only modestly inhibited

Q: What about the “MIC80 E. coli” value [6] of the same compound?
A: 29.6 µM (≈ 10.7 µg/mL)

Q: What about the MIC80 ([11]; Ck1 (Citrobacter koseri)) of the same compound?
A: >100 µM

Q: And the MIC80 ([12]; Kp1 (Klebsiella pneumonia))?
A: >100 µM

Q: What about the MIC80 ([12]; Kp6 (Klebsiella pneumonia)) of the same compound?
A: >100 µM

Q: What about the MIC80 ([13]; Mm1 (Morganella morganii)) of the same compound?
A: >100 µM

Q: And the “inhibition of MDR Enterobacteriaceae (in words)” value ([14]; except one MDR E. coli and one Enterobacter cloacae complex strain)?
A: No obvious inhibition

Q: What about the MIC80 ([15]; Ecc1 (Enterobacter cloacae complex)) of the same compound?
A: 44.4 µM (≈ 16 µg/mL)

Q: What about the MIC80 ([15]; one Enterobacter cloacae complex strain) of the same compound?
A: 66.7 µM (≈ 24 µg/mL)

Q: And the MIC80 ([16]; Ec1 (MDR E. coli))?
A: >100 µM

Q: What about the MIC80 ([16]; Ec2 (MDR E. coli)) of the same compound?
A: 66.7 µM (≈ 24 µg/mL)

Q: And the MIC80 ([16]; Ec3 (MDR E. coli))?
A: >100 µM

Q: And the MIC80 ([16]; Ec4 (MDR E. coli))?
A: >100 µM

Q: What about the MIC80 ([16]; Ec5 (MDR E. coli)) of the same compound?
A: >100 µM

Q: And the MIC80 ([16]; one MDR E. coli)?
A: 44.4 µM (≈ 16 µg/mL)

Q: For `O=C(Sc1cccccc1=O)c1ccccc1` [Compound 364], which CC50 [2] is on record?
A: > 50 µM

Q: And the CC50 [3]?
A: 67 µM

Q: And the MIC80 [4]?
A: 13.2 µM (≈ 3.2 µg/mL)

Q: What about the “MIC80 E. coli” value [6] of the same compound?
A: 19.8 µM (≈ 4.8 µg/mL)

Q: And the MIC80 [6]?
A: < 30 µM

Q: And the MIC80 [8]?
A: < 20 µM

Q: And the MIC80 ([11]; Citrobacter koseri)?
A: 33.3 µM (≈ 8.07 µg/mL)

Q: What about the MIC80 ([12]; Klebsiella pneumoniae, Kp1 (Klebsiella pneumonia)) of the same compound?
A: > 33.3 µM

Q: What about the MIC80 ([12]; Klebsiella pneumoniae, Kp6 (Klebsiella pneumonia)) of the same compound?
A: > 33.3 µM

Q: And the MIC80 ([13]; Morganella morganii)?
A: > 33.3 µM

Q: And the MIC80 ([14]; read-out: MIC80 on MDR Enterobacteriaceae)?
A: ≤ 20 µM

Q: What about the MIC80 ([15]; Enterobacter cloacae) of the same compound?
A: 33.3 µM (≈ 8.07 µg/mL)

Q: What about the MIC80 ([16]; Escherichia coli, Ec1 (MDR E. coli)) of the same compound?
A: 33.3 µM (≈ 8.07 µg/mL)

Q: What about the MIC80 ([16]; Escherichia coli, Ec2 (MDR E. coli)) of the same compound?
A: 14.8 µM (≈ 3.59 µg/mL)

Q: And the MIC80 ([16]; Escherichia coli, Ec3 (MDR E. coli))?
A: 22.2 µM (≈ 5.38 µg/mL)

Q: And the MIC80 ([16]; Escherichia coli, Ec4 (MDR E. coli))?
A: 33.3 µM (≈ 8.07 µg/mL)
